Measured values reported in ChEMBL document CHEMBL4428092, “Synthesis and activity evaluation of the cyclic dipeptides arylidene N-alkoxydiketopiperazines” (Bioorg Med Chem, 2016).

How the values were obtained:
[1] = Growth inhibition of human K562-1 cells at 20 ug/ml after 24 hrs by sulforhodamine B assay relative to control; assay type: functional; conditions: read-out: GI
HCT-8 = assay: Growth inhibition of human HCT8 cells at 20 ug/ml relative to control; assay type: functional; conditions: read-out: GI
HepG2 = assay: Growth inhibition of human HepG2 cells at 20 ug/ml relative to control; assay type: functional; conditions: read-out: GI
MDA-MB-231 = assay: Growth inhibition of human MDA-MB-231 cells at 20 ug/ml relative to control; assay type: functional; conditions: read-out: GI
HCT-15 [2] = assay: Growth inhibition of human HCT15 cells at 20 ug/ml relative to control; assay type: functional; conditions: read-out: GI
HT-29 [3] = assay: Growth inhibition of human HT-29 cells at 20 ug/ml relative to control; assay type: functional; conditions: read-out: GI
A549 [4] = assay: Growth inhibition of human A549 cells at 20 ug/ml relative to control; assay type: functional; conditions: read-out: GI
[5] = Cytotoxicity against human K562-1 cells at 100 uM after 24 hrs by sulforhodamine B assay relative to control; assay type: functional
[6] = Cytotoxicity against human K562-1 cells at 50 uM after 24 hrs by sulforhodamine B assay relative to control; assay type: functional
[7] = Cytotoxicity against human K562-1 cells at 20 uM after 24 hrs by sulforhodamine B assay relative to control; assay type: functional
[8] = Cytotoxicity against human K562-1 cells at 10 uM after 24 hrs by sulforhodamine B assay relative to control; assay type: functional
[9] = Cytotoxicity against human K562-1 cells at 5 uM after 24 hrs by sulforhodamine B assay relative to control; assay type: functional
HCT-15 [10] = assay: Cytotoxicity against human HCT15 cells at 100 uM after 24 hrs by sulforhodamine B assay relative to control; assay type: functional
HCT-15 [11] = assay: Cytotoxicity against human HCT15 cells at 50 uM after 24 hrs by sulforhodamine B assay relative to control; assay type: functional
HCT-15 [12] = assay: Cytotoxicity against human HCT15 cells at 20 uM after 24 hrs by sulforhodamine B assay relative to control; assay type: functional
HCT-15 [13] = assay: Cytotoxicity against human HCT15 cells at 10 uM after 24 hrs by sulforhodamine B assay relative to control; assay type: functional
HCT-15 [14] = assay: Cytotoxicity against human HCT15 cells at 5 uM after 24 hrs by sulforhodamine B assay relative to control; assay type: functional
HT-29 [15] = assay: Cytotoxicity against human HT-29 cells at 100 uM after 24 hrs by sulforhodamine B assay relative to control; assay type: functional
HT-29 [16] = assay: Cytotoxicity against human HT-29 cells at 50 uM after 24 hrs by sulforhodamine B assay relative to control; assay type: functional
HT-29 [17] = assay: Cytotoxicity against human HT-29 cells at 20 uM after 24 hrs by sulforhodamine B assay relative to control; assay type: functional
HT-29 [18] = assay: Cytotoxicity against human HT-29 cells at 10 uM after 24 hrs by sulforhodamine B assay relative to control; assay type: functional
A549 [19] = assay: Cytotoxicity against human A549 cells at 50 uM after 24 hrs by sulforhodamine B assay relative to control; assay type: functional
A549 [20] = assay: Cytotoxicity against human A549 cells at 20 uM after 24 hrs by sulforhodamine B assay relative to control; assay type: functional
[21] = Antiproliferative activity against human K562-1 cells after 24 hrs by sulforhodamine B assay relative to control; assay type: functional, cell-based
HCT-15 [22] = assay: Antiproliferative activity against human HCT15 cells after 24 hrs by sulforhodamine B assay relative to control; assay type: functional, cell-based; conditions: HCT-15, 24 h
HT-29 [23] = assay: Growth inhibition of human HT-29 cells at 20 ug/ml after 24 hrs by sulforhodamine B assay relative to control; assay type: functional; conditions: HT-29, 24 h, read-out: GI
A549 [24] = assay: Growth inhibition of human A549 cells at 20 ug/ml after 24 hrs by sulforhodamine B assay relative to control; assay type: functional; conditions: A549, 24 h, read-out: GI
[25] = Growth inhibition of human Bre04 cells at 20 ug/ml after 24 hrs by sulforhodamine B assay relative to control; assay type: functional; conditions: Bre04, 24 h, read-out: GI
[26] = Growth inhibition of human K562-1 cells at 20 ug/ml relative to control; assay type: functional; conditions: read-out: GI
HCT-15 [27] = assay: Growth inhibition of human HCT15 cells at 20 ug/ml after 24 hrs by sulforhodamine B assay relative to control; assay type: functional; conditions: HCT-15, 24 h, read-out: GI
A549 [28] = assay: Cytotoxicity against human A549 cells at 100 uM after 24 hrs by sulforhodamine B assay relative to control; assay type: functional
A549 [29] = assay: Cytotoxicity against human A549 cells at 10 uM after 24 hrs by sulforhodamine B assay relative to control; assay type: functional
A549 [30] = assay: Cytotoxicity against human A549 cells at 5 uM after 24 hrs by sulforhodamine B assay relative to control; assay type: functional
A549 [31] = assay: Antiproliferative activity against human A549 cells after 24 hrs by sulforhodamine B assay relative to control; assay type: functional, cell-based; conditions: A549, 24 h

SMILES | inhibition of growth at 20 µg/mL (HCT-8) [%] | inhibition of growth at 20 µg/mL (HepG2) [%] | inhibition of growth at 20 µg/mL (MDA-MB-231) [%] | inhibition of growth at 20 µg/mL (HCT-15 [2]) [%] | inhibition of growth at 20 µg/mL (HT-29 [3]) [%] | inhibition of growth at 20 µg/mL (A549 [4]) [%] | Activity [5] [%] | Activity [6] [%] | Activity [7] [%] | Activity [8] [%] | Activity [9] [%] | Activity (HCT-15 [10]) [%] | Activity (HCT-15 [11]) [%] | Activity (HCT-15 [12]) [%] | Activity (HCT-15 [13]) [%] | Activity (HCT-15 [14]) [%] | Activity (HT-29 [15]) [%] | Activity (HT-29 [16]) [%] | inhibition of growth at 20 µg/mL [25] [%] | inhibition of growth at 20 µg/mL [26] [%] | other results
COc1cc(/C=C2\C(=O)N3CCC[C@H]3C(=O)N2OC2CCCCC2)cc(OC)c1OC | 75.2 | 76.1 | 42.5 | 67.9 | 60.5 | 26.4 | 96.4 | 83.6 | 61.3 | 50.7 | 30.2 | 89.7 | 69.3 | 47.6 | 39.2 | 40.4 | 88.5 | 56.6 |  |  | inhibition of growth at 20 µg/mL [1]: 80.1%; Activity (HT-29 [17]): 42.9%; Activity (HT-29 [18]): 48.8%; Activity (A549 [19]): 33.4%; Activity (A549 [20]): 20.5%; IC50 [21]: 9.8 µM; IC50 (HCT-15 [22]): 23.7 µM
CCON1C(=O)[C@@H]2CCCN2C(=O)/C1=C\c1ccccc1 |  |  |  |  |  |  |  |  |  |  |  |  |  |  |  |  |  |  | 21.9 |  | inhibition of growth at 20 µg/mL [1]: 42.6%; inhibition of growth at 20 µg/mL (HT-29 [23]): 62.8%; inhibition of growth at 20 µg/mL (A549 [24]): 25.3%
O=C1[C@@H]2CCCN2C(=O)/C(=C\c2cccnc2)N1OC1CCCCC1 | 80.1 | 60.4 | 16.1 | 62.1 | 70.3 | 35.2 |  |  |  |  |  |  |  |  |  |  |  |  | 35.3 | 69.3 | 
O=C1[C@@H]2CCCN2C(=O)/C(=C\c2ccccc2)N1OCc1ccccc1 | 66.8 | 69.2 | 32.6 | 69.7 | 76.2 | 41.3 |  |  |  |  |  |  |  |  |  |  |  |  | 25 | 65.6 | 
CCCCON1C(=O)[C@@H]2CCCN2C(=O)/C1=C\c1cc(OC)c(OC)c(OC)c1 | 60.6 | 64.3 | 45.6 | 61.6 | 61.6 | 43.4 |  |  |  |  |  |  |  |  |  |  |  |  |  | 64.4 | 
COc1cc(/C=C2\C(=O)N3CCC[C@H]3C(=O)N2OCc2ccc(Cl)cc2)cc(OC)c1OC |  |  |  |  |  |  | 97.8 | 96.5 | 73.9 | 58.1 | 36.7 | 98.6 | 94.4 | 81.6 | 60.5 | 42.4 | 86.8 | 55.7 | 50.3 |  | inhibition of growth at 20 µg/mL [1]: 95.7%; inhibition of growth at 20 µg/mL (HCT-15 [27]): 92.6%; inhibition of growth at 20 µg/mL (HT-29 [23]): 53.2%; inhibition of growth at 20 µg/mL (A549 [24]): 76.6%; Activity (HT-29 [17]): 39.2%; Activity (HT-29 [18]): 24.2%; Activity (A549 [28]): 91.7%; Activity (A549 [19]): 81.8%; Activity (A549 [20]): 63.4%; Activity (A549 [29]): 48.1%; Activity (A549 [30]): 4.03%; IC50 [21]: 7.3 µM; IC50 (HCT-15 [22]): 8.6 µM; IC50 (A549 [31]): 11.4 µM
COc1cc(/C=C2\C(=O)N3CCC[C@H]3C(=O)N2OCc2ccccc2)cc(OC)c1OC | 79.1 | 75 | 43.2 | 74.2 | 70.1 | 8.9 |  |  |  |  |  |  |  |  |  |  |  |  |  | 73.2 | 
O=C1[C@@H]2CCCN2C(=O)/C(=C\c2ccccc2)N1OC1CCCCC1 | 76.3 | 68.5 | 17.3 | 72.3 | 69.4 | 33.8 |  |  |  |  |  |  |  |  |  |  |  |  |  | 78.2 | 
COc1cc(/C=C2\C(=O)N3CCC[C@H]3C(=O)N2OCc2cccnc2)cc(OC)c1OC |  |  |  |  |  |  |  |  |  |  |  |  |  |  |  |  |  |  |  |  | inhibition of growth at 20 µg/mL (HCT-15 [27]): 78.7%; inhibition of growth at 20 µg/mL (HT-29 [23]): 30.7%; inhibition of growth at 20 µg/mL (A549 [24]): 27.1%
CCCCON1C(=O)[C@@H]2CCCN2C(=O)/C1=C\c1ccccc1 | 68.4 | 59.9 | 16.3 | 90.6 | 64.9 | 50.8 | 99.6 | 92.7 | 46.5 | 39.2 | 30.2 | 99.1 | 87.5 | 78.3 | 48.8 | 4.04 | 80.6 | 61.6 |  | 96.2 | Activity (HT-29 [17]): 39.8%; Activity (HT-29 [18]): 21.2%; Activity (A549 [28]): 91.1%; Activity (A549 [19]): 48.4%; Activity (A549 [20]): 16.2%; IC50 [21]: 27.3 µM; IC50 (HCT-15 [22]): 11.8 µM
CON1C(=O)[C@@H]2CCCN2C(=O)/C1=C\c1ccccc1 | 78.8 | 62.2 | 23.5 | 88.8 | 65.4 | 26.6 | 98.6 | 87.3 | 55.4 | 36.2 | 24.4 | 96.5 | 82.6 | 60.5 | 46.8 | 37.3 | 88.6 | 56.4 | 24.5 | 90.4 | Activity (HT-29 [17]): 34.9%; Activity (HT-29 [18]): 28.1%; Activity (A549 [28]): 50.5%; Activity (A549 [19]): 22.4%; IC50 [21]: 17.6 µM; IC50 (HCT-15 [22]): 14.1 µM
